Data set [1] is described as follows: chemical recovery from spiked human plasma; higher = better extraction. Particulars: pooled human plasma.
Data set [2] is described as follows: chemical recovery into PDMS from spiked human plasma; higher = better extraction. Particulars: pooled human plasma, extraction method: PES with PDMS.
Data set [3] in a line: chemical recovery by SPE of plasma after PDMS sampling; higher = better extraction. Particulars: pooled human plasma, extraction method: HLB SPE of plasma after PES.
Setting [4] is: extraction method: PES+SPE (3 d PDMS equilibration then HLB SPE).
[5] abbreviates: extraction method: SPE only (HLB 96-well).
The mark [6] stands for this setting: extraction method: solvent precipitation (ACN + hexane).
The mark [7] stands for this setting: extraction method: SPE only (HLB 96-well), PES comparison experiment.

13 compounds from the supplement of paper PMC10702517 can be followed below.

The structures appear in SMILES notation. ± gives the standard deviation.
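Throughout, for chemical recovery by SPE of plasma after PDMS sampling: over 400 spiked chemicals quantified by LC-HRMS or GC-HRMS via internal standard calibration, recovery relative to spike mix added to unspiked plasma extract to correct matrix effects.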

As to `Brc1ccc(Oc2cc(Br)c(Br)cc2Br)c(Br)c1` [BDE99], the chemical recovery came out at 53.9 ± 4.6% in data set [1] (setting [4]), 1.63 ± 0.65% in data set [1] (setting [5]) and 4.89 ± 0.2% in data set [1] (setting [6]). For the same compound, the “chemical recovery into PDMS” value in data set [2] (equilibration time (d): 3) was 99.1 ± 13%; in data set [2] (equilibration time (d): 6), 92.4 ± 7.2%. Also, the “chemical recovery by SPE of plasma” value in data set [3] (equilibration time (d): 1) came to 1.13 ± 1.1%.

Consider `Brc1ccc(Oc2c(Br)cc(Br)cc2Br)c(Br)c1` [BDE100], for which the values for the chemical recovery in data set [1] (setting [4]), in data set [1] (setting [5]) and in data set [1] (setting [6]) were 67.4 ± 0.92%, 3.57 ± 1.4% and 7.72 ± 0.68%, respectively. In addition, the “chemical recovery into PDMS” value in data set [2] (equilibration time (d): 3) is 99.1 ± 13%; in data set [2] (equilibration time (d): 6), 95.9 ± 6%. The “chemical recovery by SPE of plasma” value in data set [3] (equilibration time (d): 1) came out at 2.2 ± 2%; in data set [3] (equilibration time (d): 3), 1.42 ± 0.25%; in data set [3] (equilibration time (d): 6), 0.324 ± 0.56%.

For `Brc1cc(Br)c(Oc2cc(Br)c(Br)cc2Br)cc1Br` [BDE153], the chemical recovery turned out to be 6.21 ± 3.4% in data set [1] (setting [5]) and 44.6 ± 2.3% in data set [1] (setting [6]). Moreover, the “chemical recovery into PDMS” value is 68.9 ± 6.3% in data set [2] (equilibration time (d): 3) and 71.7 ± 9.9% in data set [2] (equilibration time (d): 6). Besides, the “chemical recovery by SPE of plasma” value in data set [3] (equilibration time (d): 1) turned out to be 2.71 ± 2.5%; in data set [3] (equilibration time (d): 3), 2.62 ± 0.49%; in data set [3] (equilibration time (d): 6) it was 1 ± 0.88%.

Turning to `Brc1cc(Br)c(Oc2cc(Br)c(Br)cc2Br)c(Br)c1` [BDE154], the chemical recovery in data set [1] (setting [6]) stood at 28.8 ± 2.3%. For the same compound, the “chemical recovery into PDMS” value was 67.2 ± 9.8% in data set [2] (equilibration time (d): 3) and 66.7 ± 20% in data set [2] (equilibration time (d): 6). In addition, the “chemical recovery by SPE of plasma” value in data set [3] (equilibration time (d): 1) is 1.62 ± 1.4%; in data set [3] (equilibration time (d): 3) it was 1.94 ± 0.88%.

Consider `CNC(=O)Oc1cccc2c1OC(C)(C)O2` [Bendiocarb], for which the chemical recovery is 35.9 ± 5.4% in data set [1] (setting [4]), 45.8 ± 1.5% in data set [1] (setting [5]), 45.4 ± 4.6% in data set [1] (setting [7]) and 0.0898 ± 0.13% in data set [1] (setting [6]). For the same compound, the entries for the “chemical recovery into PDMS” value in data set [2] (equilibration time (d): 1), in data set [2] (equilibration time (d): 3) and in data set [2] (equilibration time (d): 6) were 25.2 ± 0.81%, 20.4 ± 0.2% and 21.4 ± 0.87%, respectively. Also, the results for the “chemical recovery by SPE of plasma” value in data set [3] (equilibration time (d): 1), in data set [3] (equilibration time (d): 3) and in data set [3] (equilibration time (d): 6) were 20.4 ± 0.99%, 26.5 ± 2.1% and 21.6 ± 1.7%, respectively.

Take `O=S(=O)(O)c1ccccc1` [Benzenesulfonic acid]: the chemical recovery in data set [1] (setting [4]) was found to be 1.83 ± 0.28%; in data set [1] (setting [5]) it was 2.56 ± 1.3%; in data set [1] (setting [7]), 8.52 ± 6%; in data set [1] (setting [6]) it was 80.7 ± 8.4%. Further, the “chemical recovery into PDMS” value in data set [2] (equilibration time (d): 1) turned out to be 0.00847 ± 0.015%. For the same compound, the “chemical recovery by SPE of plasma” value came to 3.18 ± 3.5% in data set [3] (equilibration time (d): 1), 1.77 ± 0.98% in data set [3] (equilibration time (d): 3) and 2.93 ± 1.1% in data set [3] (equilibration time (d): 6).

Consider `c1ccc2c(c1)-c1cccc3c1c-2cc1ccccc13` [Benzo(b)fluoranthene], for which the chemical recovery in data set [1] (setting [5]) came to 0.807 ± 0.61%; in data set [1] (setting [6]) it was 36 ± 1.5%. The “chemical recovery into PDMS” value was found to be 93.1 ± 4.8% in data set [2] (equilibration time (d): 3) and 93.6 ± 18% in data set [2] (equilibration time (d): 6). Moreover, the “chemical recovery by SPE of plasma” value in data set [3] (equilibration time (d): 3) stood at 3.78 ± 9.3%.

As for `c1ccc2c(c1)Cc1cc3ccccc3cc1-2` [Benzo(b)fluorene], the chemical recovery in data set [1] (setting [4]) came out at 57.9 ± 6.2%; in data set [1] (setting [5]), 1.4 ± 0.48%; in data set [1] (setting [7]) it was 17.5 ± 3.4%; in data set [1] (setting [6]), 69.1 ± 5.1%. Also, the figures for the “chemical recovery into PDMS” value in data set [2] (equilibration time (d): 3) and in data set [2] (equilibration time (d): 6) were 107 ± 3.9% and 110 ± 13%, respectively. Besides, the “chemical recovery by SPE of plasma” value came to 1.71 ± 1.6% in data set [3] (equilibration time (d): 1), 2.82 ± 0.45% in data set [3] (equilibration time (d): 3) and 2.41 ± 0.48% in data set [3] (equilibration time (d): 6).

For the compound `CCOC(=O)c1ccc(N)cc1` [Benzocain], the chemical recovery is 32.9 ± 5.6% in data set [1] (setting [4]), 39.3 ± 3.4% in data set [1] (setting [5]) and 64.9 ± 4.3% in data set [1] (setting [6]). For the same compound, the “chemical recovery into PDMS” value in data set [2] (equilibration time (d): 1) was 23.5 ± 1.9%; in data set [2] (equilibration time (d): 3), 23.3 ± 1.7%; in data set [2] (equilibration time (d): 6), 26.3 ± 2.2%. The “chemical recovery by SPE of plasma” value in data set [3] (equilibration time (d): 1) amounted to 14.6 ± 2.6%; in data set [3] (equilibration time (d): 3) it was 18.4 ± 1.5%; in data set [3] (equilibration time (d): 6), 14.4 ± 2.3%.

On to `COc1ccc(C(=O)c2ccccc2)c(O)c1` [Benzophenone-3], for which the chemical recovery worked out at 41.3 ± 8.9% in data set [1] (setting [4]), 28.9 ± 1.7% in data set [1] (setting [5]), 33.1 ± 5.5% in data set [1] (setting [7]) and 65 ± 3.6% in data set [1] (setting [6]). The entries for the “chemical recovery into PDMS” value in data set [2] (equilibration time (d): 1), in data set [2] (equilibration time (d): 3) and in data set [2] (equilibration time (d): 6) were 35.5 ± 1.5%, 38.2 ± 2.1% and 38.6 ± 4.5%, respectively. Moreover, the entries for the “chemical recovery by SPE of plasma” value in data set [3] (equilibration time (d): 1), in data set [3] (equilibration time (d): 3) and in data set [3] (equilibration time (d): 6) were 1.5 ± 0.48%, 1.88 ± 0.31% and 1.41 ± 0.17%, respectively.

In turn, `CCCCC(=O)O[C@]1(C(=O)CO)[C@@H](C)C[C@H]2[C@@H]3CCC4=CC(=O)C=C[C@]4(C)[C@@]3(F)[C@@H](O)C[C@@]21C` [Betamethasone-17-valerate] came in with a chemical recovery in data set [1] (setting [7]) of 41.7 ± 7.8%. Further, the “chemical recovery into PDMS” value in data set [2] (equilibration time (d): 1) is 12.9 ± 1.3%; in data set [2] (equilibration time (d): 3), 18.8 ± 1.3%; in data set [2] (equilibration time (d): 6), 20.1 ± 1.2%. For the same compound, the “chemical recovery by SPE of plasma” value in data set [3] (equilibration time (d): 3) was determined as 26.8 ± 4.2%; in data set [3] (equilibration time (d): 6), 19.1 ± 4.2%.

For `CC(C)(Oc1ccc(CCNC(=O)c2ccc(Cl)cc2)cc1)C(=O)O` [Bezafibrate], the chemical recovery in data set [1] (setting [4]) came to 47.8 ± 3.6%; in data set [1] (setting [5]), 45.5 ± 3.2%; in data set [1] (setting [7]), 52.7 ± 4.8%; in data set [1] (setting [6]), 74.9 ± 2.3%. Moreover, the “chemical recovery into PDMS” value in data set [2] (equilibration time (d): 1) stood at 0.000935 ± 0.0016%; in data set [2] (equilibration time (d): 3), 0.00082 ± 0.0014%. Moreover, the figures for the “chemical recovery by SPE of plasma” value in data set [3] (equilibration time (d): 1), in data set [3] (equilibration time (d): 3) and in data set [3] (equilibration time (d): 6) were 52.7 ± 6.2%, 56.9 ± 2.6% and 53.6 ± 2.6%, respectively.

Consider `c1ccc(-c2ccc(C(c3ccccc3)n3ccnc3)cc2)cc1` (centres undefined) [Bifonazol], for which, in data set [1] (setting [7]), the chemical recovery turned out to be 46.6 ± 10%. Also, the “chemical recovery into PDMS” value in data set [2] (equilibration time (d): 1) turned out to be 38.6 ± 3.1%; in data set [2] (equilibration time (d): 3), 38.5 ± 4.5%; in data set [2] (equilibration time (d): 6) it was 35.7 ± 4.3%. For the same compound, the figures for the “chemical recovery by SPE of plasma” value in data set [3] (equilibration time (d): 1), in data set [3] (equilibration time (d): 3) and in data set [3] (equilibration time (d): 6) were 0.932 ± 0.2%, 0.479 ± 0.14% and 0.0513 ± 0.051%, respectively.
